This is an account of results in ChEMBL document CHEMBL1149063, “Secondary metabolites by chemical screening, 26.1 7-O-beta-D-galactosyl-brefeldin A via transglycosylation with Penicillium brefeldianum” (J Nat Prod, 1994).

In brackets after ≈: the same amount, converted by molar mass.

For one data set, the system named is L1210. Briefly: Antiproliferative activity against mouse L1210 cells by MTT reduction assay. In kind it is functional, cell-based.
The next data set has as its system HT-29. In words: Antiproliferative activity against human HT-29 cells by MTT reduction assay. In kind it is functional, cell-based.
A further data set deals with A549. In words: Antiproliferative activity against human A549 cells by MTT reduction assay. The format is functional, cell-based.
Data set [1] is described as follows: Toxicity in po dosed rat. Particulars: in vivo. In kind it is organism-based.

For `C[C@H]1CCC/C=C/[C@@H]2C[C@H](O[C@@H]3O[C@H](CO)[C@H](O)[C@H](O)[C@H]3O)C[C@H]2[C@H](O)/C=C/C(=O)O1` [7-O-BETA-D-GALACTOSYL-BREFELDIN A], the IC50 in the data set with L1210 stood at 10 µg/mL (≈ 22.6 µM); in the data set on HT-29, 1.3 µg/mL (≈ 2.94 µM); in the data set with A549 it was 1.2 µg/mL (≈ 2.71 µM).
Turning to `C[C@H]1CCC/C=C/[C@@H]2C[C@H](O)C[C@H]2[C@H](O)/C=C/C(=O)O1` [BREFELDIN A], the LD50 in data set [1] worked out at 275 mg/kg.
